Reference: patent US8232299B2, “Phthalimide derivatives that influence cellular vesicular systems, pharmaceutical compositions, and use thereof” (Avidin Kft., priority 2007, dated 2012)

Legend:
[1] = system: TNFα; test: early (preformed) TNFα secretion of RAW.264.7 macrophages, ELISA; assay type: cell-based, mice
From the text: Matured macrophages produce tumor necrosis factor (TNF-alpha or TNFα) in response to bacterial lipopolysaccharide (E. coli LPS, Sigma) stimulation. TNFα production is induced by […] to the toll-like receptor 4 (TLR-4), the lipopolysaccharide binding protein (LBP), and the CD14 receptor. Secretion of the TNFα is biphasic. For one hour after the stimulation macrophages respond with release of preformed TNFα. Meanwhile, the NF-kappaB signaling pathway turns on the TNFα gene transcription reaching maximum after approximately 8 hours.
In our experiments we investigated the early TNFα secretion of RAW.264.7 matured mice macrophages. This cell line stores large amount of preformed TNFα. […] Culture supernatant was collected and TNFα content was determined by R&D Duoset ELISA kit (detection limit<62.5 pg/ml). […] So the reduced TNFα level was due to inhibition of the release of preformed TNFα and not due to dying of the cells.
In this example two controls (diluent only—ethanol incubated) and four treated samples were analyzed.

[2] = system: TNFα; test: late phase (transcriptionally induced) TNFα secretion of macrophages, ELISA; assay type: cell-based, mice; settings: preformed TNFα washed away after 4 hours, TNFα of next 4 hours; FIG. 3
Protocol: For the detection of late phase TNFα secretion the preformed TNFα, released after LPS induction of the macrophages, was washed away after 4 hours, and the amount of TNFα produced during the next 4 hours was determined by ELISA test. […] Results are depicted in FIG. 3.

[3] = system: RVH human melanoma cell line; test: cytotoxic effect on melanoma cell line, MTS assay, 48 hours; assay type: cell-based; settings: 48 hours treatment; FIG. 4
Protocol: RVH human melanoma cell line was cultured in Minimum Essential Medium Eagle (Sigma, St. Louis, Mo., USA), Na-piruvate, Glutamine, Non-essential amino acids, penicillin (50 IU/ml)-streptomycin ([…]), 10% fetal bovine serum at 37° C., in 5% CO2. Cells were trypsinized with trypsin/EDTA (Sigma-Aldrich, St. Louis, Mo.) on every second day and were passed into 60 or 100 mm plates. When the culture reached the required cell number (approx. 10^6) for the planned experiment 50.00 cell/well was plated into 24 well plates (Costar® 24 Well TC-Treated Microplates) and left overnight to adhere to the bottom of the well. Addition of the substance was performed the following way: next day the culture media was drawn from the adhered cells and media comprising compounds of the present invention in appropriate concentration and well mixed therein was pipetted (2 ml/well) onto the cells. The substance to be examined was diluted in 100% DMSO, this way an amount of DMSO corresponding to the highest concentration of the substance in a given assay were measured in the media of the control wells. After 48 hours of treatment live cells were detected by CellTiter® 96 Aqueous Non-radioactive Cell Proliferation Assay (Promega, Madison, Wis., USA) to determine the number of live cells in the treated and in the control samples.
MTS is converted to formazane in the living cells, which product is dissolved in the media, and its quantity/absorbance can be measured at 490 nm. […] Then, for the determination of the ratio of live cells 20 μl MTS and 1 μl PMS are added to 100 μl media. The enzyme reaction occurs at incubation at 37° C., 5% CO2 for 1 to 4 hours. Formazane produced by the cells is read on ELISA plate reader, from which the number of living cells can be obtained indirectly. Since the inventors performed the experiments in 24 well plates with 50.000 cell/well, the protocol had to be modified. After treatment of the cells for an appropriate time (type of compound, different concentrations), the incubation media (2 ml) containing the examined substance was removed, then 400 μl media containing reagents in the same concentration as given above (333.3 μl media, 66.6 μl MTS, and 3.3 μl PMS per well) was pipetted to the cells. To be able to use ELISA plate reader (Multiskan R C, Thermo Labsystems, Franklin, Mass., USA) 400 μl sample from each single well of the 24 well plate was pipetted into four wells of a 96 well plate (Micromethod plates 96 wells flat form) in 100 μl aliquots. That also helped to eliminate possible errors due to inconsistent pipetting. On each 24 well plate 4 wells were control samples. From these 3 times 100 μl was pipetted onto the 96 well plates, so, altogether 12 controls were provided on each 96 well plate. The remaining 4 wells were for background measurements with 100 μl media containing MTS and PMS as described above.

[4] = system: HepG2 (human hepatocellular carcinoma); test: cytotoxic effect on hepatocellular carcinoma cell line, MTS test, 24 hours; assay type: cell-based; settings: 24 hours incubation, already at 20 and 50 μM concentrations
Protocol: In these experiments HepG2 (human hepatocellular carcinoma) and MCF7 (Human breast adenocarcinoma) cells were used. They were cultured in the following media: For HepG2 Dulbecco's Modified Eagle Medium (D-MEM) (high glucose) (Gibco BRL, Carlsbad, Calif., USA), penicillin (50 IU/ml)-streptomycin ([…]), 10% fetal bovine serum; for MCF7 (Human breast adenocarcinoma) 1:1 mixture of Dulbecco's Modified Eagle Medium (D-MEM) (high glucose) (Gibco BRL, Carlsbad, Calif., USA) and Nutrient Mixture F-12 Ham (Sigma, St. Louis, Mo., USA), penicillin (50 IU/ml)-streptomycin ([…]), 10% fetal bovine serum. Experiments were performed as described in Example 9. with the difference that the incubation time was 24 hours in this case. After the incubation period MTS test (3-(4,5-dimethylthiazol-2-yl)-5-(3-carboxymethoxyphenyl)-2-(4-sulfophenyl)-2H-tetrazolium) (Promega, Madison, Wis., USA) was performed as described above.

[5] = system: human melanoma (HT168M1); test: spleen/liver animal model, melanoma cells injected into spleen; assay type: in vivo, CB17/scid mice
Protocol: Studies were conducted in the spleen/liver animal model. From 40 adult male CB17/scid mice, born with immunodeficiency, 20 were randomly selected, and they were further divided into two groups. Animals were marked on their ear one by one. 10 of the selected mice were treated with compound 3b (40 mg/kg) for 5 days (PRETREATED/3b), the other 10 animals were treated per os by gavage with appropriate dilution of DMSO serving as the carrier (PRETREATED/control). On the 5th treatment day all the 40 animals were anesthetized by Nembutal (75 mg/kg), and 4×10^4 cells from human melanoma (HT168M1) was injected into their spleens (i.s.). Local bleeding during the implantation was treated with Gelaspon resorbable gelatin sponge. On the 7th day after the implantation the non-treated 20 mice were randomly assigned into two groups and their ear was marked. 10 mice were treated from this time on with compound 3b (40 mg/kg) (POSTTREATED/3b), the other 10 were treated with appropriate dilution of the carrier (DMSO) with similar frequency (POSTTREATED/control) per os once a day five times per week for three weeks. Pretreated groups were not treated after the implantation. Body weight changes were monitored once a week for each animal. 31 days after implantation animals were sacrificed by bleeding in Nembutal (75 mg/kg) anesthesia. […]

CCNc1c(F)c(F)c2c(c1F)C(=O)N(c1c(C(C)C)cccc1C(C)C)C2=O [Compound 3b, 2-(2,6-diisopropylphenyl)-5-(ethylamino)-4,6,7-trifluoroisoindole-1,3-dione]
LPS stimulated TNFα release of the macrophages ([1]; 100 ng/ml LPS, FIG. 2b): reduces the induced TNFα release
basal TNFα release of the macrophages ([1]; without LPS induction, FIG. 2a): able to reduce the basal TNFα release
late TNFα secretion of macrophages [2]: inhibited late TNFα secretion of macrophages in a concentration dependent way
inhibition of RVH melanoma cells (cytotoxic effect) [3]: strongest inhibition
effect on HepG2 cells [4]: strong effect
further metastasis of the adhered cells ([5]; posttreatment 40 mg/kg per os from day 7, five times per week for three weeks, not statistically significant): slightly inhibited
number of metastases ([5]; pretreatment 40 mg/kg per os for 5 days before implantation, p=0.05, FIG. 7): significantly reduced the number of metastases
